The text below walks through data of PubChem BioAssay (NCI).

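Following 48 hours of exposure in 96-well plates, responses at five concentrations were used to interpolate endpoints linearly. Here, GI50 denotes the concentration required for 50% inhibition of growth. Definition used: TGI = concentration required for complete inhibition of growth.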

What all share (test): DTP human tumour cell line panel, 48 h
In test [1] the test system is LOX IMVI melanoma.
The subject of test [2] is MDA-MB-435.
Test [3] deals with SK-MEL-28 melanoma.
The test system of test [4] is 786-0 renal.
The subject of test [5] is SF-539 CNS.
Test [6] relates to UACC-62 melanoma.
Test [7] has as its system HCT-15 colon.
Test [8] concerns SW-620 colon.
Test [9] concerns SF-295 CNS.
The subject of test [10] is MDA-MB-231 breast.

On to `N#Cc1ccccc1C#C/C=C\C#Cc1cnccn1`, for which the GI50 in test [1] is over 21.1 µM; in [2] it was 3.14 µM; in test [3], 35.2 µM; in test [4], 21 µM; in [5], 9.5 µM; in test [6], 14.5 µM. Besides, the GI50 in test [7] was 20.6 µM; in test [8], 5.85 µM; in [9] it was 6 µM; in [10], 11.1 µM. In addition, the TGI in test [1] was over 60.9 µM; in test [3] it was over 100 µM; in test [4], over 79.3 µM; in test [5] it was 46.2 µM; in test [6], over 89.9 µM; in test [7], over 61 µM. Moreover, the TGI in test [8] is over 41.9 µM; in test [9], over 25 µM; in [10] it was 44.1 µM.

As to `CCOC(=O)C(Cc1ccc(N(CCCl)CCCl)cc1)NC(=O)C(CC(C)C)NC(C)=O` (stereo not given), the GI50 in test [1] was 0.296 µM; in [2], 1.43 µM; in test [3], 1.61 µM; in [4], 1.38 µM; in [5] it was 1.09 µM; in test [6], 0.659 µM. Moreover, the GI50 in test [7] was 2.22 µM; in test [8], 1.08 µM; in [9], 2.12 µM; in [10] it was 2 µM. Further, the TGI in [1] stood at 2.23 µM; in test [2], 3.25 µM; in [3], 3.82 µM; in test [4], 4.38 µM; in test [5], 7.01 µM; in test [6], 2.19 µM. Also, the TGI is over 27.8 µM in test [7], 6.03 µM in [8], 16.6 µM in [9] and 4.94 µM in [10].

Consider `CN(C)CCCn1c2c(c3ccc([N+](=O)[O-])cc3c1=O)C(=O)c1ccccc1-2`, for which the GI50 is 2.87 µM in [1]; over 100 µM in test [2]; over 100 µM in [3]; 4.75 µM in test [4]; 7.13 µM in test [6]; 10.6 µM in [7]. The GI50 in test [8] is 5.7 µM; in [9], 8.63 µM; in test [10], 15.9 µM. In addition, the TGI is 13.3 µM in [1]; over 100 µM in test [2]; over 100 µM in test [3]; 21.2 µM in [4]; 24.6 µM in [6]; 35.8 µM in test [7]. In addition, the TGI in test [8] is over 100 µM; in test [9], over 100 µM; in test [10], 38.1 µM.

As to `Cn1c(N)cc(=O)nc1N`, the TGI in [1], in test [2], in test [3], in test [4], in [5] and in [6] was over 100 µM throughout. Besides, the TGI in test [7], in [8], in test [9] and in test [10] was over 100 µM each time.

With `C=CC(=O)N1CC[C@@H](Oc2nc(Nc3ccc(N4CCC(N5CCN(C)CC5)CC4)cc3)c(C(N)=O)nc2CC)C1`, the GI50 in test [1], in [2], in test [3], in [4], in [5] and in test [6] was over 100 µM each time. In addition, the GI50 in test [7], in [8], in test [9] and in [10] was over 100 µM throughout. For the same molecule, the TGI in test [1], in test [2], in test [3], in test [4], in [5] and in test [6] was over 100 µM each time. The TGI in test [7], in [8], in test [9] and in test [10] was over 100 µM each time.

`CC[N+]1(C)CCC(O)(/C=C/c2ccccc2)C(C(=O)/C=C/c2ccccc2)C1` (stereo not given): the total growth inhibition concentration (TGI) came to 7.79 µM in [1]; 31.7 µM in test [2]; 18.9 µM in [3]; 13.9 µM in [4]; 19 µM in test [5]; 33.4 µM in test [6]. In addition, the TGI came to 15.5 µM in test [7], 6.45 µM in [8], 33.4 µM in test [9] and 31 µM in test [10].

Turning to `CCS(=O)(=O)Nc1ccc(Oc2ccc(F)cc2F)c(-c2cn(C)c(=O)c3[nH]ccc23)c1`, the GI50 in test [1] is 0.0124 µM; in test [2], under 0.0112 µM; in test [3] it was 1.64 µM; in test [4], 0.192 µM; in test [5] it was 0.0135 µM; in test [6] it was under 0.01 µM. Besides, the GI50 is 0.0404 µM in [7], 1.65 µM in test [8], 0.0742 µM in test [9] and 0.0494 µM in test [10]. For the same molecule, the TGI in [1] stood at 0.905 µM; in test [2], 13.3 µM; in test [3], 21 µM; in test [4], 18.1 µM; in test [5] it was 16.1 µM; in test [6] it was 6.28 µM. The TGI is 19.5 µM in [7], 25.8 µM in test [8], 20.1 µM in [9] and 17.5 µM in test [10].

Consider `COC(=O)[C@@H](C)C[C@H](Cc1ccccc1)NC(=O)c1cccc([C@@H](C[C@H](C(C)C)N(C)C(=O)[C@@H](NC(=O)[C@H]2CCCCN2C)C(C)C)OC(C)=O)n1`, for which the GI50 in test [1] was 0.00495 µM; in [2] it was under 0.00167 µM; in [4] it was 0.00583 µM; in [5], 0.00275 µM; in [6], under 0.00167 µM; in test [7] it was 0.00507 µM. Moreover, the GI50 in test [8] is under 0.00167 µM; in [9], under 0.00167 µM; in [10] it was 0.00236 µM. In addition, the TGI in [1] is over 16.7 µM; in test [2], 0.0881 µM; in test [4], over 16.7 µM; in test [5] it was 0.00795 µM; in [6], over 16.7 µM; in test [7], over 16.7 µM. The TGI in test [8] is over 16.7 µM; in test [9], 0.0142 µM; in [10], 3.21 µM.

Broadly, the GI50 is the concentration that inhibits growth by half. By TGI is commonly meant the concentration giving total growth inhibition.
